Read-outs that look alike come from different tables or passages of the source.
Tests used:
DAT in the striatum [1] = molecular target: T1, DAT in the striatum (Homo sapiens, UniProt Q01959); conditions: imaging time 15 min to 45 min post-administration, cited from earlier work
T1 construct: from tissue; host or cells: striatum of living subjects (in vivo SPECT)

[2] = Clinical safety and radiation dose of radiolabeled DaT2020 bolus injection; type: in vivo, human
Experimental: Such buffers include, but are not limited to, ethanol (solvent), sodium hydroxide and acetic acid (pH adjustment), sodium chloride injection (isotonic vehicle). The formulation to be administered as a bolus injection has been shown in sponsored clinical trials to be safe containing a dose of up to about 8 mCi to 10 mCi of radiolabeled DaT2020 and delivered in a total volume of about 2.5 mL to about 5 mL.
The radioactivity of the dose of radiolabeled DaT2020 or of its radiolabeled derivatives, can be determined one with skill in the art, e.g. by a nuclear medicine imaging technician. In addition, the total radioactivity of the actual administered dose is of relevance and not the volume administered to achieve this dose. The exact radioactive dose of the tracer administered is determined by calculating the difference between the radioactivity in the syringe and delivery system before and after injection. After the dose is delivered, the syringe is filled with a volume of saline equal to the administered dose volume. The syringe content is recounted under the same conditions as used to determine the dose; separately. […]

DAT in the striatum [3] = molecular target: T1, DAT in the striatum; test: DaT2020 SPECT study: striatal binding ratio over time after IV injection; type: in vivo; conditions: for specific binding ratio reached, as % of average stable binding ratio: within six min after injection
Experimental: The results obtained from administering lower doses of radiolabeled_DaT2020 (5.3 mCi) were modeled from the data obtained using the 8 mCi dose and a 3-headed camera. Within six min after injection of radiolabeled DaT2020, the specific binding ratios of Parkinson's patients and the healthy volunteer group had reached 90% and 74% of the average stable binding ratio of 1.32 and 1.64, respectively, during the previously determined imaging time of 15 min to 45 min post-administration. In contrast, DaTscan takes least 180 min to reach a stable binding ratio.
The subjects used in the study were healthy volunteers (HV) and those with at least mild Parkinson's disease (PD) (Seibyl at al. (2008) “ALTROPANE SPECT in Parkinson's disease patients and healthy controls” (poster). Abs. Movement Dis. Soc. 12th Internat. Con. Parkinson's Disease and Movement Disorders). All subjects were evaluated by a clinician using validated measures to determine if there is evidence of a movement disorder. Any subject using an anti-parkinsonian medication abstained from its use for at least 12 hr prior to the movement disorder evaluation. […]
ROIs were determined using data obtained from about 24 min to 30 min after dose administration, with individual subject ROI sampling of the left and right caudate and putamen and an occipital background region. […]
To determine the striatal binding ratios (SBR) extract total counts within the ROI, total volume, and count density (counts/voxel) from each scan. SBR is calculated as the density of counts (counts per voxel per min) in the striatal region minus the counts in the occipital cortex (background) divided by the density of counts in the occipital background region. The mean striatal SBR scores are calculated as the mean of the left and right caudate and putamen SBR scores.
DaT2020 SBR data over time were abstracted by reading the graphics showing SBR over time for PD patients (Seibyl and Merck, ibid., Appendix 1) (the first scan of two was read), and in Appendix 2 for healthy volunteers (Seibyl and Merck, ibid., Appendix 2).

DAT [4] = molecular target: T2, DAT (Homo sapiens, UniProt Q01959); test: Binding selectivity of DaT2020 for DAT over SERT
Target sequence in this assay (Q01959 whole entry, species assumed): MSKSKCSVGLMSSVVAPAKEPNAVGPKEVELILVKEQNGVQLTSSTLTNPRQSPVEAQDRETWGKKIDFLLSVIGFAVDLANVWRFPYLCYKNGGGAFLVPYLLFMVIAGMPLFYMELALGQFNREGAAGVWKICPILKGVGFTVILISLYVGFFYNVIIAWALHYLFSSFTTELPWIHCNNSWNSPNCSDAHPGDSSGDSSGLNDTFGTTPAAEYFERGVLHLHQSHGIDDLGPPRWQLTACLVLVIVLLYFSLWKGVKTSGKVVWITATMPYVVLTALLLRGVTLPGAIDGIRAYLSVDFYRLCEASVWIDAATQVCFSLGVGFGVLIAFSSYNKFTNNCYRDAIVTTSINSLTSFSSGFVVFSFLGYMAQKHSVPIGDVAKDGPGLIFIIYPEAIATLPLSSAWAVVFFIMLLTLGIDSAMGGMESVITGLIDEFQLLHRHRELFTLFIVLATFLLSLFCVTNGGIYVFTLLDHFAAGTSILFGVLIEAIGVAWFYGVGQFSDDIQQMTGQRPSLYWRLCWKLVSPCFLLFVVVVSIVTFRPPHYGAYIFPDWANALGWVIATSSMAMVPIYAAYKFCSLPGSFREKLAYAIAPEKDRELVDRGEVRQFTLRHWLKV

DAT [5] = molecular target: T2, DAT; set-up: host or cells: brain tissue in vivo; conditions: after binding to transporters other than DAT; package insert; cited from earlier work
Target sequence in this assay (Q01959 whole entry): as the sequence (Q01959 whole entry, species assumed) above

DAT [6] = molecular target: T2, DAT; conditions: DAT sites per one SERT site; package insert; cited from earlier work
Target sequence in this assay (Q01959 whole entry, species assumed): as above

DAT in the striatum [7] = molecular target: T1, DAT in the striatum; conditions: cited from earlier work; for time after injection to stable binding to striatal DAT: DaTscan, IV injection, SPECT

T1 sequence (Q01959 whole entry): as the sequence (Q01959 whole entry, species assumed) above

Row | SMILES | average stable binding ratio (SBR) (DAT in the striatum [1]; Parkinson's patients) | average stable binding ratio (SBR) (DAT in the striatum [1]; healthy volunteer group) | safety of bolus injection in sponsored clinical trials ([2]; dose of up to about 8 mCi to 10 mCi, total volume about 2.5 mL to about 5 mL) | effective dose ([2]; for 5 mCi of radiolabeled DaT2020) | specific binding ratio reached, as % of average stable binding ratio (DAT in the striatum [3]; Parkinson's patients) | specific binding ratio reached, as % of average stable binding ratio (DAT in the striatum [3]; healthy volunteer group) | time after administration at which stable binding to DAT occurs (DAT in the striatum [3]; radiolabeled DaT2020, IV injection, SPECT) | binding selectivity for DAT over SERT (DAT [4]) | DaTscan available for DAT transporter binding in the brain tissue (DAT [5]) | DAT sites bound for every one SERT site (DAT [6]) | time after injection to stable binding to striatal DAT (DAT in the striatum [7]) | time after injection to stable binding to striatal DAT (DAT in the striatum [7]; listed as [^123I]-FP-CIT) | time for which binding remains stable (DAT in the striatum [7]; after reaching stable binding 3 hr post-injection)
1 | COC(=O)[C@H]1[C@@H](c2ccc(F)cc2)C[C@@H]2CC[C@H]1N2C/C=C/I [DaT2020, E-2β-carbomethoxy-3β-(4-fluorophenyl)-N-(3-iodo-E-allyl) nortropane] | 1.32 | 1.64 | safe | approximately 4.3 mSv | 90% | 74% | 15 min | 28 fold | – | – | – | – | –
2 | COC(=O)[C@H]1[C@@H](c2ccc(I)cc2)C[C@@H]2CC[C@H]1N2CCCF [DaTscan, N-ω-fluoropropyl-2β-carbomethoxy-3β-(4-iodophenyl) nortropane] | – | – | – | – | – | – | – | – | about 7% | two to three | 3 h | 3 h | 3 h
